Experimental data published in PubChem BioAssay (NCI).
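48-hour exposure; five concentrations; linearly interpolated endpoints. At the TGI there is no net growth.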

Experiments:
Test in all cases: NCI anticancer screen, dose series, 48 h
[1] = test system: SR leukemia
[2] = test system: HT29 colon
[3] = test system: UO-31 renal
[4] = test system: OVCAR-3 ovarian
[5] = test system: OVCAR-4 ovarian
[6] = test system: DU-145 prostate
[7] = test system: RPMI-8226 leukemia
[8] = test system: NCI-H23 lung
[9] = test system: CAKI-1 renal
[10] = test system: MALME-3M melanoma
[11] = test system: HOP-62 NSCLC
[12] = test system: UACC-257 melanoma
[13] = test system: SK-OV-3 ovarian
[14] = test system: RXF 393 renal
[15] = test system: HS 578T breast
[16] = test system: COLO 205 colon
[17] = test system: SN12C renal
[18] = test system: SK-MEL-28 melanoma
[19] = test system: HCT-116 colon
[20] = test system: IGROV1 ovarian

Structure (SMILES) | TGI [1] [µM] | TGI [2] [µM] | TGI [3] [µM] | TGI [4] [µM] | TGI [5] [µM] | TGI [6] [µM] | TGI [7] [µM] | TGI [8] [µM] | TGI [9] [µM] | TGI [10] [µM] | TGI [11] [µM] | TGI [12] [µM] | TGI [13] [µM] | TGI [14] [µM] | TGI [15] [µM] | TGI [16] [µM] | TGI [17] [µM] | TGI [18] [µM] | TGI [19] [µM] | TGI [20] [µM]
N=c1oc2ccc(Cl)cc2cc1C(=O)Nc1ccccc1 | > 100 | > 100 | > 100 | > 100 | > 100 | > 100 | > 100 | > 100 | > 100 | > 100 | > 94.8 | > 100 | > 70.2 | > 100 | > 59.6 | > 100 | > 100 | > 100 | > 100 | > 100
NC1=Nc2ccccc2Sc2nnc(-c3ccc(Cl)cc3)n21 | > 100 | > 100 | > 100 | > 100 | > 100 | > 100 | > 100 | > 100 | > 100 | > 100 | 85 | > 100 | > 100 | > 100 | > 100 | > 100 | > 100 | > 100 | > 100 | > 100
CSCC[C@H]1C(=O)N=C(N)N1C(=O)OCc1ccccc1 | 55.8 | > 100 | > 100 | > 100 | > 100 | > 100 | > 100 | 55.4 | 44.3 | > 100 | > 100 | > 100 |  | 45.6 | 49.9 | 39.7 | > 100 | 96.8 | 37.7 | > 100
Cc1ccc(C(=O)C#Cc2cn(C3CC(O)C(CO)O3)c(=O)[nH]c2=O)cc1 (stereo not drawn) | > 100 | > 100 | > 100 | 60 | > 100 | > 100 | > 100 | > 100 | > 100 | 29.1 | > 100 | > 100 | > 100 | > 100 | > 100 | > 100 | > 100 | > 100 | > 100 | > 100
c1ccc2c(c1)CCN2CCc1c[nH]c2ccccc12 | > 10 | > 10 | > 10 | > 10 | > 10 | > 10 | > 10 | > 10 | > 10 | > 10 | > 10 | > 10 | > 10 | > 10 | > 10 | > 10 | > 10 | > 10 | > 10 | > 10
CC(=O)Nc1ccc(N2C(=O)/C(=C\c3cccc(Oc4ccccc4)c3)SC2c2ccccc2)cc1 (stereo not drawn) | 56.4 |  | > 100 | > 100 | > 100 | > 100 | 58.3 | > 100 | > 100 | 62.4 | 56.6 | > 100 | > 100 | > 100 | 66.3 | > 100 | 97 | 76.1 | 39.6 | 
COc1ccc(/C=C(\NC(=O)c2ccccc2)C(=O)NN(C)c2ccnc3cc(Cl)ccc23)cc1OC | 41.3 | > 100 | 80.4 | 69.7 | 90.5 | 66.3 | 45.3 | 62.8 | 90.6 | 72.5 | > 100 | 79.1 | > 100 | 38.4 | > 100 | 61 | 66.9 | 58.1 | > 100 | 47.6
COC(=O)c1cc(-c2c[nH]cc2C(=O)OCc2ccccc2)cn1S(=O)(=O)c1ccc(C)cc1 | > 100 | > 100 | > 100 | > 100 | > 100 | > 100 |  | > 100 | > 100 | > 100 | > 100 | > 100 | > 100 | > 100 | > 100 | > 100 | > 100 |  | > 100 | > 100
O=C1C(N=Nc2ccc(-c3nc4ccccc4o3)cc2)NC(=S)N1c1ccccc1 (stereo not drawn) | 85.6 | > 100 | > 100 | 64.3 | > 100 | > 100 |  | > 100 | > 100 | > 100 | > 100 | > 100 | > 100 | > 100 | > 100 | > 100 | > 100 | > 100 | > 100 | > 100
NCCCc1ccc2oc3ccccc3c2c1 | 52.2 | 26 | 29.6 | 31.5 | 38.3 | 30.6 | 70.7 | 41.8 | 29.7 | 34.3 | 32 | 32.1 | 31.3 | 32.4 | 47.7 | 32.8 | 31.9 | 32.9 | 29.7 | 43.7
CCc1cc2c(cc1CCCC(=O)O)CC1(Cc3ccc(C(=O)O)cc3C1)C2 (stereo not drawn) | > 100 | > 100 | > 100 | > 100 | > 100 | > 100 | > 100 | > 100 | > 100 | > 100 | > 100 | > 100 | > 100 | > 100 | > 100 | > 100 | > 100 | > 100 | > 100 | > 100
CCOC(=O)C1(Cc2c[nH]c3ccccc23)C(O)CCCN1C(C)=O (stereo not drawn) | > 100 | > 100 | > 100 | > 100 | > 100 | > 100 | > 100 | > 100 | > 100 | > 100 | > 100 | > 100 | > 100 | > 100 | > 100 | > 100 |  | > 100 | > 100 | > 100
